Experimental findings from article PMC9448386, “Discovery of novel conjugates of quinoline and thiazolidinone urea as potential anti-colorectal cancer agent” (Journal of Enzyme Inhibition and Medicinal Chemistry, 2022) are described below.

In one assay the target is HGFR (Homo sapiens, UniProt P08581). The assay can be described thus: Mobility shift assay, HGFR kinase inhibition. The format is biochemical. As to conditions: mean of two independent experiments. The procedure:
(§1) Kinase inhibitory activity against HGFR, MST1R, ABL, PDGFRβ, AXL, FLT3, RET, c-Src, and VEGFR-2 was evaluated by the mobility shift assay. Detailed operation could be found in our previous research.

Another assay has as its target MST1R (Homo sapiens, UniProt Q04912). The assay can be described thus: Mobility shift assay, MST1R kinase inhibition. The format is biochemical. The conditions noted are these: mean of two independent experiments. As to the method:
as §1

For the next assay, the system named is HT-29 cells. Briefly: MTT assay, cytotoxic activity against HT-29. The format is cell-based, human. As to conditions: Homo sapiens, HT-29, average of three separate determinations, SD shown. The text has this:
(§2) Taking lead compound BC2021-104511-15i, Fruquintinib and Regorafenib as positive controls, the cytotoxic activity against HT-29, HCT-116, COLO-205 and FHC cell lines by MTT assay. Detailed operation could be found in our previous study.

The subject of another assay is HCT-116 cells. The assay can be described thus: MTT assay, cytotoxic activity against HCT-116. The conditions noted are these: Homo sapiens, average of three separate determinations, SD shown. The format is cell-based.
Description: as §2

The test system of assay [1] is COLO 205 cells. Briefly: MTT assay, cytotoxic activity against COLO 205. It counts as cell-based.
Description: as §2
For orientation: Formazan colour is commonly taken as a measure of viable cells.

The next assay addresses ABL (Homo sapiens, UniProt P00519). Briefly: Mobility shift assay, ABL. The format is biochemical. The conditions noted are these: mean of two independent experiments, SD shown. As to the method:
as §1

A further assay has as its target RET (Homo sapiens, UniProt P07949). The assay can be described thus: Mobility shift assay, RET. The format is biochemical. As to conditions: mean of two independent experiments, SD shown. The procedure: as §1
In a further assay the target is T1, FLT3 (Homo sapiens, UniProt P36888).
T1 sequence (P36888 27-993): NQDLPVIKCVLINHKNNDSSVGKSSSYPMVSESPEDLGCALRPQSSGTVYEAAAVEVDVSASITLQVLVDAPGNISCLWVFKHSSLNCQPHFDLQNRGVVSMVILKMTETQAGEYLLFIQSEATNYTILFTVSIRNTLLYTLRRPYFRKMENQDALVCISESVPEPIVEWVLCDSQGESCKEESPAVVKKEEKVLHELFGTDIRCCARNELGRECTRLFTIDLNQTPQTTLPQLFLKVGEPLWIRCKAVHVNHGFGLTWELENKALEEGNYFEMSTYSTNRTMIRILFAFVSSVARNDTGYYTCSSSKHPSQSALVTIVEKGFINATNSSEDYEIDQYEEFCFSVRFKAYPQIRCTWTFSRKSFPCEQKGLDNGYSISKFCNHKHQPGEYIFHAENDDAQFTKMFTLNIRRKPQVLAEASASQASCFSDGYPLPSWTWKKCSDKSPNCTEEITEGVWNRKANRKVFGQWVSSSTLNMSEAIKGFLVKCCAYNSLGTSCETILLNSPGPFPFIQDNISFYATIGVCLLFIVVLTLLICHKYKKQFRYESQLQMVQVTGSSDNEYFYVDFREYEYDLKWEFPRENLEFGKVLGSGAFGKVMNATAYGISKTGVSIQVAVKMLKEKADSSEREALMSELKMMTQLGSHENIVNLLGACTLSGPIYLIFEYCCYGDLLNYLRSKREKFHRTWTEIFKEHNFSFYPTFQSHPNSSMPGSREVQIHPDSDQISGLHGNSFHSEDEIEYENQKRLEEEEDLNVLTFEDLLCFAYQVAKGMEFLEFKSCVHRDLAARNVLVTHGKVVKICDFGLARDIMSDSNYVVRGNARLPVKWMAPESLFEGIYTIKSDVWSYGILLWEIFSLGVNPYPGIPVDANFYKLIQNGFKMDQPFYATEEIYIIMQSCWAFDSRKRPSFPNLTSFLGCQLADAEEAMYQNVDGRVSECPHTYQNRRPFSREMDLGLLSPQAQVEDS
The assay can be described thus: Mobility shift assay, FLT3. As to conditions: mean of two independent experiments, SD shown. It counts as biochemical. The procedure:
as §1

The next assay concerns the target VEGFR-2 (Homo sapiens, UniProt P35968). The assay can be described thus: Mobility shift assay, VEGFR-2. It counts as biochemical. The conditions noted are these: mean of two independent experiments, SD shown. The procedure:
as §1

Assay [2] deals with COLO 205 cells. Briefly: Annexin V-FITC/PI apoptosis assay by flow cytometry. It counts as cell-based. The conditions noted are these: 72 h; for total apoptosis (early apoptosis and advanced apoptosis): mean of three independent determinations. The procedure:
Quantitative analysis of early-apoptotic cells, advanced-apoptotic cells and necrotic cells was determined. COLO 205 cells were stimulated with different concentrations of compound 10a for 72 h. […] The total apoptosis including early apoptosis and advanced apoptosis accounted for 58.8%, 29.3% and 21.0% (the mean value of three independent determinations) when COLO 205 cells were treated with compound 10a at the concentration of 1.0 μM, 0.33 μM and 0.11 μM, respectively.
COLO 205 cells (2.5 × 10^5) were seeded in two 12-well plates and treated with DMSO and compound 10a (0.11 μM, 0.33 μM and 1.0 μM) for 72 h (37 °C, 5% CO2). The cells were collected, centrifuged at 1000 rpm for 5 min, and then washed with cold PBS for twice. Apoptosis assays were conducted with CytoFLEX S (Beckman Coulter).
A general note: Flow cytometry measures light scatter and fluorescence of single cells or particles in a stream.

Assay [3] deals with COLO 205 cells. Briefly: Cell cycle arrest assay by flow cytometry. It counts as cell-based. The conditions noted are these: COLO 205, 0.33 μM and 0.11 μM, 24 h. As to the method: The antiproliferative activity of compound 10a was evaluated by flowcytometry analysis of COLO 205 cells. COLO 205 cells were treated with different concentrations (1.0 μM, 0.33 μM and 0.11 μM) of compound 10a for 24 h. […] At the concentration of 1.0 μM, cell cycle arrest could not be determined due to the massive dead cells (data not shown).
COLO 205 cells (2.5 × 10^5) were seeded in two 12-well plates and treated with DMSO and compound 10a (0.11 μM, 0.33 μM and 1.0 μM) for 24 h (37 °C, 5% CO2). Cells were collected, centrifuged at 1000 rpm for 5 min, washed with cold PBS for twice, and then fixed with 500 μL 75% cold ethanol at 4 °C. The cells were washed with cold PBS and stained with propidium iodide for 30 min in the dark. Cell-cycle analyses were conducted with Cytoflex S (Beckman Coulter).

A word on the IC50: it is the concentration at which inhibition is half-maximal.

Sequence of VEGFR-2 (P35968 20-1356): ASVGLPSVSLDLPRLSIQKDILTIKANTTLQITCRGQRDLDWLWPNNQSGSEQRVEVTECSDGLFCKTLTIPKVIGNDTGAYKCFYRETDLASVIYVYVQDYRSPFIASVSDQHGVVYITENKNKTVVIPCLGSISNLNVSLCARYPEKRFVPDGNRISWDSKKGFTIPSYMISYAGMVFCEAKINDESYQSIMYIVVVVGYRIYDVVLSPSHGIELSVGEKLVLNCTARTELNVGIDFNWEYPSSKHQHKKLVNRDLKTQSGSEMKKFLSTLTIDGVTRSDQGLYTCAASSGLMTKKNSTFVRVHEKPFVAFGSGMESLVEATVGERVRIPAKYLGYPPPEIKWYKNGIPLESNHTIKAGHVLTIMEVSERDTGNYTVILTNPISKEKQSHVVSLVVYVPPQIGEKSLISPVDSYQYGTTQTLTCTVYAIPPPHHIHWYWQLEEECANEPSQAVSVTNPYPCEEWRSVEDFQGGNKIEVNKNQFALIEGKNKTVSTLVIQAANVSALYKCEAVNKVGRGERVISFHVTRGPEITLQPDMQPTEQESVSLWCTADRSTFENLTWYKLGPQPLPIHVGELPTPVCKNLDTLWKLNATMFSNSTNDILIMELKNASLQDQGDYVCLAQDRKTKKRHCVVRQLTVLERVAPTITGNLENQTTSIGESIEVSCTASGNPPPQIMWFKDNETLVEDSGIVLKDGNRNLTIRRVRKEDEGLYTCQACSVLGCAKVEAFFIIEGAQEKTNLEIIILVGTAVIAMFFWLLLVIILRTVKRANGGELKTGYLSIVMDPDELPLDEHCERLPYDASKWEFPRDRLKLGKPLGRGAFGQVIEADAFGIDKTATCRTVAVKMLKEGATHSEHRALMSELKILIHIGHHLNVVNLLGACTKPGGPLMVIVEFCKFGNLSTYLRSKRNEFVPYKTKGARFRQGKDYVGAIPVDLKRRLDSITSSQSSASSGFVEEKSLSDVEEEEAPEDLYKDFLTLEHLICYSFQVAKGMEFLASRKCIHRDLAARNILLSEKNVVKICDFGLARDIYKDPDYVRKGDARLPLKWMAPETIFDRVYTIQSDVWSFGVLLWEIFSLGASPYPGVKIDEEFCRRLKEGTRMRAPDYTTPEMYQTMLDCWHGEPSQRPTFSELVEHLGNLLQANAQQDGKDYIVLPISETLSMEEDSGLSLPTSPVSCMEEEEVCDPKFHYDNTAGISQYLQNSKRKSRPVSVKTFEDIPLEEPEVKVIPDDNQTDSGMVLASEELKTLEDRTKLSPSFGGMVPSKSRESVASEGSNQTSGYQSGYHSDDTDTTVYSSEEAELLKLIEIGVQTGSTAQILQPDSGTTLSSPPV
Sequence of HGFR (P08581 25-1390): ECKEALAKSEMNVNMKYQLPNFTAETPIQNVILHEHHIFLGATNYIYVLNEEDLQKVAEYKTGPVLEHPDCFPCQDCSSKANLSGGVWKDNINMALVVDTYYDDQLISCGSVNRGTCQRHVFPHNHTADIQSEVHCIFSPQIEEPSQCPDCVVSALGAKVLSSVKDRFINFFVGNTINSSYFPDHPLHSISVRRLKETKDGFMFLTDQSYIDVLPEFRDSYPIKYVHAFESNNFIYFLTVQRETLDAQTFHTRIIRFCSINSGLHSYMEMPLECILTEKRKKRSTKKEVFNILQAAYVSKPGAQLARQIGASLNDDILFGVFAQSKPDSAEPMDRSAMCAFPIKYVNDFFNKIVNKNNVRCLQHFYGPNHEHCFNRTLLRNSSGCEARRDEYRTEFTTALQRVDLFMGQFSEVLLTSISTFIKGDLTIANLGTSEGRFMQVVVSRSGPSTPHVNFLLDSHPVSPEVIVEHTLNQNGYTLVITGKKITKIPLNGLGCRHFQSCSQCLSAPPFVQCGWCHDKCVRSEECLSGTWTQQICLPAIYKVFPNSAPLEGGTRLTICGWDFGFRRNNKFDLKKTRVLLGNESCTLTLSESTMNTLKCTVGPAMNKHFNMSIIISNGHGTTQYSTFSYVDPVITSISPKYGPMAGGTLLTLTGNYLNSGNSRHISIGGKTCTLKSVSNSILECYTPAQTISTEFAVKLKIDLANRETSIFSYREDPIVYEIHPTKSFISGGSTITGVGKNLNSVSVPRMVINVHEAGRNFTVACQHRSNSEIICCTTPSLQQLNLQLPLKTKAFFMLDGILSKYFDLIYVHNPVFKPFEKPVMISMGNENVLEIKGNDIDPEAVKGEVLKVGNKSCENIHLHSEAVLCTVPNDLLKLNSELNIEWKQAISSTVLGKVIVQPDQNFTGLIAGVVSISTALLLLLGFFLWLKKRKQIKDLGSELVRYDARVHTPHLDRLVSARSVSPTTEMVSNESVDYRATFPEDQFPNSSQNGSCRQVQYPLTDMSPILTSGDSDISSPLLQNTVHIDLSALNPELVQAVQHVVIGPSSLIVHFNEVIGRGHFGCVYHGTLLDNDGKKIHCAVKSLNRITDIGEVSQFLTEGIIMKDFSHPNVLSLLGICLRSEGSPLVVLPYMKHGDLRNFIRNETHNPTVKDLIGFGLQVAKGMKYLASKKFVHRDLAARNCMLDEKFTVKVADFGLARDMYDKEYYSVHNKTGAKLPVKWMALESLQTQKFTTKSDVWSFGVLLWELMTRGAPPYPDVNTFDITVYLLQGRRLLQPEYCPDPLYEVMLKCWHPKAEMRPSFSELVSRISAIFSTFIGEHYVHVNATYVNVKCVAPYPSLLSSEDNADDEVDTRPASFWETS
Sequence of MST1R (Q04912 25-1400): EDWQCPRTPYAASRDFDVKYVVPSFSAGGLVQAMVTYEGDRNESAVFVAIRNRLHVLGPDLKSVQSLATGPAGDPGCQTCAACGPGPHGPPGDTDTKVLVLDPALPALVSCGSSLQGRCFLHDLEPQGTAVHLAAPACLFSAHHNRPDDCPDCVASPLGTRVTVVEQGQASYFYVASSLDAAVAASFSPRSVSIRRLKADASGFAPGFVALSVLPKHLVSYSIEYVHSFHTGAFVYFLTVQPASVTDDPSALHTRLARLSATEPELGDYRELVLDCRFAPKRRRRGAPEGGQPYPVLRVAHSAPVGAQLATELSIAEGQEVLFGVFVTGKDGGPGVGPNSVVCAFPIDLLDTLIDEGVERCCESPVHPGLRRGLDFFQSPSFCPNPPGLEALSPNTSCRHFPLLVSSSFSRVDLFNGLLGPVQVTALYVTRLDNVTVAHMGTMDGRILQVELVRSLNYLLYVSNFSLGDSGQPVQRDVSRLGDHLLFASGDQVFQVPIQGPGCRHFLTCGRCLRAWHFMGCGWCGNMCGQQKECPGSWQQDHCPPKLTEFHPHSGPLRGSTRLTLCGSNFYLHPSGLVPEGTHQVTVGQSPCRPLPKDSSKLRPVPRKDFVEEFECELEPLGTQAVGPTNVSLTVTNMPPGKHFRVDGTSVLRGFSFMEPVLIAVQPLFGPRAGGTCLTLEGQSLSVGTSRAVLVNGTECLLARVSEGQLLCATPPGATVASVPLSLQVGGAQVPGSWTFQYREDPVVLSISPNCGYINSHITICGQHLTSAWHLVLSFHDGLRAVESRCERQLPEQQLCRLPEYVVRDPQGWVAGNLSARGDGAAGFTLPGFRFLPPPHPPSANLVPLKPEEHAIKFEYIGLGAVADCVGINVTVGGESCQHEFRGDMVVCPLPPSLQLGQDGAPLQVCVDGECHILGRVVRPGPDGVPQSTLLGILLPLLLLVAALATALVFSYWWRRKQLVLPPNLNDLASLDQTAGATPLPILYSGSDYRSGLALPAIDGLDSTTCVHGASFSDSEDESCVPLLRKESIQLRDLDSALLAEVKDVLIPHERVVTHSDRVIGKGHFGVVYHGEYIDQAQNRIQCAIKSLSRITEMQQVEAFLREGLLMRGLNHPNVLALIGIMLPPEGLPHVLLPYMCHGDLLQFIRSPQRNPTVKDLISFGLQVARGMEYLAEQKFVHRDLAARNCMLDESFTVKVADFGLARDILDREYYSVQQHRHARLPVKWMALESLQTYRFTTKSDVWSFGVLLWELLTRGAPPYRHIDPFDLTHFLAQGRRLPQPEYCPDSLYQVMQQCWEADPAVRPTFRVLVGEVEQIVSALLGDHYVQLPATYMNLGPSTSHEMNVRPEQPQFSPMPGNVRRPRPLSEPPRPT

`COc1cc2c(Oc3ccc(NC(=O)NN4C(=O)CSC4c4c(F)cccc4F)cc3F)ccnc2cc1OC1CCN(CC(N)=O)CC1` (stereo not shown) [Compound 10a, 2–(4-((4–(4-(3–(2-(2,6-Difluorophenyl)-4-oxothiazolidin-3-yl)ureido)-2-fluorophenoxy)-6-methoxyquinolin-7-yl)oxy)piperidin-1-yl)acetamide]: the half-maximal inhibitory concentration (IC50) at HGFR turned out to be 110 nM; at MST1R it was 45 nM; with HT-29 cells, 1300 ± 110 nM; with HCT-116 cells, 870 ± 110 nM; with COLO 205 cells [1] (Homo sapiens, COLO 205, MTT, average of three separate determinations, SD shown) it was 110 ± 24 nM; on ABL, 1680 ± 130 nM. For the same molecule, the values for the concentration for half-maximal inhibition (IC50) at RET, at FLT3 and on VEGFR-2 were 1270 ± 100 nM, 6930 ± 730 nM and 1160 ± 110 nM, respectively. In addition, the “fold more potent than Regorafenib and Fruquintinib against COLO 205” value in the assay on COLO 205 cells [1] (COLO 205 IC50 compared with Regorafenib and Fruquintinib) is reported as “over 90 fold”. The “cell selectivity index (FHC IC50 value vs COLO 205 IC50 value)” value in the assay on COLO 205 cells [1] (COLO 205 relative to FHC cells) was “over 90 fold”. Also, the “total apoptosis (early apoptosis and advanced apoptosis)” value in the assay with COLO 205 cells [2] (COLO 205, 0.11 μM) amounted to 21.0%; in the assay with COLO 205 cells [2] (COLO 205, 0.33 μM), 29.3%; in the assay on COLO 205 cells [2] (COLO 205, 1.0 μM) it was 58.8%. Further, the induction of apoptosis entry with COLO 205 cells [2] (COLO 205, 0.11–1.0 μM) is “could effectively induce COLO 205 cells apoptosis in a dose-dependent manner”. Besides, the cell cycle arrest result with COLO 205 cells [3] was “could not arrest the cell-cycle progression”.
